Measured values taken from ChEMBL document CHEMBL1123526, “3-Hydroxy-3-methylglutaryl-coenzyme A reductase inhibitors. 4. Side chain ester derivatives of mevinolin” (J Med Chem, 1986).
pIC50: −log10 of the molar value.

Biological target: T1, 3-hydroxy-3-methylglutaryl-coenzyme A reductase (Rattus norvegicus, UniProt P51639)
T1 sequence (P51639 whole entry): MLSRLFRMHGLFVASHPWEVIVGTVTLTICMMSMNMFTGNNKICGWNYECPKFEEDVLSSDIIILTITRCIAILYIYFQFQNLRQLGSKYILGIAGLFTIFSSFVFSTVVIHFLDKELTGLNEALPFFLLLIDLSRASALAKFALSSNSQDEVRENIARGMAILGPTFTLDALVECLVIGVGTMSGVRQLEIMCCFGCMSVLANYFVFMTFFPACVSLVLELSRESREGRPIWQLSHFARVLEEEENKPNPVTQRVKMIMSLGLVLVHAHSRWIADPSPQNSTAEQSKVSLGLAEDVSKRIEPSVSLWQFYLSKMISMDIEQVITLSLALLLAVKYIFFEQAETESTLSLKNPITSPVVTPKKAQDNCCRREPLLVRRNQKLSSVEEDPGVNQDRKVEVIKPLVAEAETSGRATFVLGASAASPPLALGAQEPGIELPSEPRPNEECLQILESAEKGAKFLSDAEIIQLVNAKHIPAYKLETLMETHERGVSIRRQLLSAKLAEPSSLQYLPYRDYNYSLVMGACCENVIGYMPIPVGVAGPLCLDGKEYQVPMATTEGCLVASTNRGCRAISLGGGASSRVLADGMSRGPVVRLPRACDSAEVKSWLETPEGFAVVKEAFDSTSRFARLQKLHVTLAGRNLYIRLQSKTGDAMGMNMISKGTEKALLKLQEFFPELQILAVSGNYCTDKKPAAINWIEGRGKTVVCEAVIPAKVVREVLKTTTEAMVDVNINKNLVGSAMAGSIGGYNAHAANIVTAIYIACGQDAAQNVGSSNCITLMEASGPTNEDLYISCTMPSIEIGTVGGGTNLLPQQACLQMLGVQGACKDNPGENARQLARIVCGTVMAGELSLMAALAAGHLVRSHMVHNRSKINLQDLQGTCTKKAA
Test: Inhibition of solubilized, purified rat liver HMG-CoA reductase.

SMILES | pIC50
C[C@H]1C=C2C=C[C@H](C)[C@H](CC[C@@H]3C[C@@H](O)CC(=O)O3)[C@H]2[C@@H](OC(=O)Cc2ccccc2)C1 | 7.72
CC[C@H](C)C(=O)O[C@H]1C[C@@H](C)C=C2C=C[C@H](C)[C@H](CC[C@@H]3C[C@@H](O)CC(=O)O3)C21 (some centres undefined) | 8.66
CCC(C)(CC)C(=O)O[C@H]1C[C@@H](C)C=C2C=C[C@H](C)[C@H](CC[C@@H]3C[C@@H](O)CC(=O)O3)C21 (some centres undefined) | 8.85
CC(C)=CC(=O)O[C@H]1C[C@@H](C)C=C2C=C[C@H](C)[C@H](CC[C@@H]3C[C@@H](O)CC(=O)O3)C21 (some centres undefined) | 7.56
C[C@H]1C=C2C=C[C@H](C)[C@H](CC[C@@H]3C[C@@H](O)CC(=O)O3)C2[C@@H](OC(=O)C23CC4CC(CC(C4)C2)C3)C1 (some centres undefined) | 8.42
C[C@H]1C=C2C=C[C@H](C)[C@H](CC[C@@H]3C[C@@H](O)CC(=O)O3)C2[C@@H](OC(=O)Oc2ccccc2)C1 (some centres undefined) | 7.08
C[C@H]1C=C2C=C[C@H](C)[C@H](CC[C@@H]3C[C@@H](O)CC(=O)O3)C2[C@@H](OC(=O)c2ccc(F)cc2)C1 (some centres undefined) | 7.43
CC(C)CC(=O)O[C@H]1C[C@@H](C)C=C2C=C[C@H](C)[C@H](CC[C@@H]3C[C@@H](O)CC(=O)O3)C21 (some centres undefined) | 8.27
C[C@H]1C=C2C=C[C@H](C)[C@H](CC[C@@H]3C[C@@H](O)CC(=O)O3)C2[C@@H](OC(=O)C(C)(C)C)C1 (some centres undefined) | 8.57
CC[C@@H](C)C(=O)O[C@H]1C[C@@H](C)C=C2C=C[C@H](C)[C@H](CC[C@@H]3C[C@@H](O)CC(=O)O3)C21 (some centres undefined) | 8.66
CC(CC(=O)O[C@H]1C[C@@H](C)C=C2C=C[C@H](C)[C@H](CC[C@@H]3C[C@@H](O)CC(=O)O3)C21)C(F)(F)F (some centres undefined) | 8.46
C[C@H]1C=C2C=C[C@H](C)[C@H](CC[C@@H]3C[C@@H](O)CC(=O)O3)C2[C@@H](OC(=O)C2CC2)C1 (some centres undefined) | 7.41
C=C(C)CC(=O)O[C@H]1C[C@@H](C)C=C2C=C[C@H](C)[C@H](CC[C@@H]3C[C@@H](O)CC(=O)O3)C21 (some centres undefined) | 8.54
CCCC(CC)(CC)C(=O)O[C@H]1C[C@@H](C)C=C2C=C[C@H](C)[C@H](CC[C@@H]3C[C@@H](O)CC(=O)O3)C21 (some centres undefined) | 8.72
CCC(CC)(CC)C(=O)O[C@H]1C[C@@H](C)C=C2C=C[C@H](C)[C@H](CC[C@@H]3C[C@@H](O)CC(=O)O3)C21 (some centres undefined) | 8.85
CC(=O)O[C@H]1C[C@@H](C)C=C2C=C[C@H](C)[C@H](CC[C@@H]3C[C@@H](O)CC(=O)O3)C21 (some centres undefined) | 6.57
CCCCC(=O)O[C@H]1C[C@@H](C)C=C2C=C[C@H](C)[C@H](CC[C@@H]3C[C@@H](O)CC(=O)O3)C21 (some centres undefined) | 8.06
CCCCCCCCCC(=O)O[C@H]1C[C@@H](C)C=C2C=C[C@H](C)[C@H](CC[C@@H]3C[C@@H](O)CC(=O)O3)C21 (some centres undefined) | 6.53
CC(C)C(=O)O[C@H]1C[C@@H](C)C=C2C=C[C@H](C)[C@H](CC[C@@H]3C[C@@H](O)CC(=O)O3)C21 (some centres undefined) | 8.11
